# System: mESC Bmi1-luciferase reporter, firefly/renilla ratio, 24 h
# Assay: compounds raising Bmi1 reporter signal – mouse embryonic stem cells, luciferase, cherry-pick, esBAF inhibitor project, dose response (AID 651717);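 note: luciferase knocked into Bmi1 locus with EF-1a renilla as cell number control; rising ratio signals esBAF inhibition which derepresses Bmi1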
row,SMILES,AC40 [µM]
1,Cc1ccc(NC(=O)O/N=C/c2ccc(F)cc2)cc1,8.83
2,COc1ccc(Nc2cc(C)c3c(O)cccc3n2)cc1,3.84
3,CC(C)N1CC2(CC(c3ccccc3F)=NO2)CN1C(=O)c1ccc(C(C)(C)C)cc1 (stereo not given),4.08
4,O=C(NCc1ccccn1)Nc1ccc(Br)cc1Cl,2.68
5,CC(=O)Nc1nc(-c2ccc(-c3ccccc3)cc2)cs1,1.56
6,COc1ccc(-c2nc(C#N)c(NC(C)C)o2)cc1,2.38
7,CCc1c(C(=O)OCc2ccccc2)[nH]c(C)c1C,2.03
8,COc1ccc(OCc2cc(C(=O)NC(C)c3csc(C)n3)no2)c(Cl)c1 (stereo not given),4.18
9,Cc1cc(-c2nnc(-c3cccc(C(F)(F)F)c3)o2)no1,6.58
10,Cc1ccc(NC(=O)C2CC3CCC2C3)c(Br)c1 (stereo not given),1.22
11,Cc1ccccc1C(=O)c1cccn1CC(=O)NCc1ccccc1Cl,9.17
12,Cc1nn(Cc2c(F)c(F)c(F)c(F)c2F)c(C)c1NC(=O)c1ccc(COc2cc(Cl)ccc2Cl)cc1,3.23
13,Cc1nc2c(sc3nc4c(cc32)COC(C)(C)C4)c(=O)n1Cc1ccccc1,1.18
14,Cc1sc(NC(=O)C2CCCCC2C(=O)O)c(C(N)=O)c1-c1ccc(C(C)C)cc1 (stereo not given),6.81
15,CSc1ccc(CNc2ccc(C)c(C)c2)cc1,2.83
16,O=C(O)c1cc(-c2ccc(-c3c(-c4ccc5c(c4)OCO5)noc3-c3ccsc3)cc2)nc2ccccc12,6.89
17,Cc1ccc(OCc2cc(C(=O)N3CCN(C4CCCCC4)CC3)no2)cc1C,10
18,COc1ccc(N2CCN(C(=O)C3Cc4ccccc4CN3C(=O)c3ccccc3)CC2)cc1 (stereo not given),16.5
19,Nc1nc(-c2ccc(Oc3ccccc3)cc2)cs1,7.87
20,Cc1cccc(OCc2nc3ccccc3n2C)c1,6.7
21,CC(=O)c1ccc(N2CCN(C(=O)c3ccc(Cn4c(=S)[nH]c5ccc(N6CCOCC6)cc5c4=O)cc3)CC2)cc1,24.8
22,Clc1cccc(Cl)c1Cn1nnc(-c2cccs2)n1,3.31
23,O=c1c2ccccc2nnn1CSc1nnnn1-c1ccccc1,9.13
24,OC(c1ccccc1)c1nc(/C=C/c2ccccc2)cs1 (stereo not given),4.88

row,SMILES,AC40 [µM]
1,COc1ccc(-c2csc(C(O)c3ccccc3)n2)cn1 (stereo not given),9.65
2,CCn1cnc2cc(NCc3ccccc3Cl)ccc21,3.92
3,COc1ccccc1N1C(=O)S/C(=C\c2ccc(C)s2)C1=O,1.95
4,Cc1ccc(CNc2cccnc2)cc1,25.7
5,Cc1cccc(NC(=O)c2c(O)c3ccccc3[nH]c2=O)c1,0.371
6,O=C1C(=C2CCc3ccccc32)Cc2ccccc21,0.363
7,Cc1ccc(NC(=O)C2CCN(S(=O)(=O)c3ccc4ccccc4c3)CC2)nc1,6.53
8,O=C(NCc1ccccc1)c1cc(-c2cccc(O)c2)on1,12.6
9,Cc1ccc(NC(=O)Nc2ccc(F)c(Cl)c2)cc1,1.85
10,O=C1c2ccccc2C2N1CCCN2C(=O)c1sc2ccccc2c1Cl (stereo not given),4.3
11,Cc1ccc(NC(=O)C2CCCN(c3ncccn3)C2)cc1C (stereo not given),4.21
12,Cc1cccc(-n2nnc(C(=O)Nc3ccc(F)cc3)c2N)c1,0.798
13,Cc1ccc(C)c(N2CCN(C(=O)CCc3nc(-c4ccccc4Br)no3)CC2)c1,15.8
14,O=c1cc(-c2ccsc2)oc2ccc(-c3ccc4cc[nH]c4c3)cc12,9.01
15,Cc1ccc2c(CN(C)Cc3ccccc3)cc(=O)oc2c1,1.82
16,CC(C)Cc1cc(C(=O)Nc2ccc(Br)cc2)no1,2.96
17,CCCNC(=O)Nc1ccc2c(c1)C(=O)N(C)C[C@H](OC)[C@@H](C)CN(Cc1ccc(-c3ccccn3)cc1)[C@H](C)CO2,1.73
18,O=C(Nc1nc2ccc(Cl)cc2s1)c1cccc(N2C(=O)CCC2=O)c1,3.25
19,COc1ccccc1C(=O)NCC(=O)Nc1ccc2c(c1)CCC2,3.24
20,Cc1cc(C)c2c(N)c(C(=O)Nc3ccccc3Br)sc2n1,2.16
21,Cc1csc(Nc2nc(N)c(C(=O)Nc3ccccc3)o2)n1,3.69
22,CC(=O)N1N=C(c2ccc(Br)cc2)CC1c1ccc(Br)cc1 (stereo not given),14.5
23,CCCN1CCN(CCCNC(=O)c2ccc3nc(N4CCCCC4)sc3c2)CC1,13.3
24,Cn1c(C(=O)N/N=C/c2ccccc2)cc2ccccc21,2.84

row,SMILES,AC40 [µM]
1,O=C(C[C@@H]1CC[C@@H]2[C@H](COC[C@H](O)CN2C(=O)Nc2ccc(Cl)cc2)O1)NCC1CCCCC1,2.62
2,COc1c(C(=O)NNC(=O)c2ccccc2)csc1Br,0.646
3,CCCn1cnc2c(SCCc3ccccc3)nc(N)nc21,7.67
4,O=P(O)(O)c1ccccc1OCCOCCOCCOCCOc1ccccc1P(=O)(O)O,8.04
5,Cc1cc(NC(=O)Nc2ccc3c(ccn3C)c2)sn1,5.14
6,CN(C)c1cccc(-c2csc(N3CCC(C(N)=O)CC3)n2)c1,0.362
7,CC(=O)Nc1ccc(NC(=O)c2cc(-c3ccc(F)cc3C)n[nH]2)cc1,7.08
8,C(=Cc1cnnc2ccccc12)c1ccccc1,1.23
9,Cc1cccc(OCc2nc3ccccc3c(=O)n2N)c1,7.24
10,CC(C)Cn1cnc2c(SCc3ccccc3)nc(N)nc21,8.9
11,O=c1c2ccccc2sc2ccccc12,2.41
12,CC(C)(C)C(=O)N1CCN(c2nc3ccccc3s2)CC1,0.702
13,O=C(Nc1ccc(Cl)c(Cl)c1)c1ccccc1NC(=O)C1CC=CCC1C(=O)O (stereo not given),7.6
14,CC(=O)Nc1ccccc1OCc1nnc(-c2ccc(Cl)cc2)o1,8.95
15,C[C@H]1CN([C@@H](C)CO)C(=O)CCCn2nncc2CO[C@@H]1CN(C)C(=O)Nc1ccc2c(c1)OCCO2,29.2
16,Cc1ccc(Nc2nc3c(c(=O)[nH]2)CCCC3)cc1,8.9
17,Cc1nc(-c2ccccc2)sc1-c1nnc(C2CC2)o1,4.24
18,Cc1nc(Nc2ccccc2)sc1C(=O)c1ccc(F)cc1,3.93
19,CO[C@H]1CN(C)C(=O)c2ccc(NC(=O)Nc3ccc4c(c3)OCO4)cc2OC[C@@H](C)NC[C@@H]1C,2.76
20,CN(CC(=O)Nc1ccccc1Br)C(=O)c1cc2c(s1)CCCCC2,2.75
21,Cc1ccc(OCc2cc(C(=O)NCCc3cccnc3)no2)cc1C,11.9
22,O=C(NC1CCCCC1)N1CCc2ccccc2C1,6.76
23,CN1CCN(C(=O)C[C@@H]2CC[C@@H]3[C@H](COC[C@@H](O)CN3C(=O)Nc3ccc4c(c3)OCO4)O2)CC1,24.2
24,c1csc(Cc2nc3ccccc3[nH]2)c1,16.2

row,SMILES,AC40 [µM]
1,COC(=O)c1c(-c2ccc(SC)cc2)sc2ccc(OC)cc12,0.613
2,Nc1nc(-c2cccc(F)c2)cs1,6.13
3,COc1ccc2[nH]c(=O)c(-c3nnn(-c4ccccc4)n3)cc2c1,11.6
4,CC(=O)Nc1ccc(CNc2nc3cc(-c4ccsc4)sc3c(=O)n2C)cc1,6.16
5,Clc1cccc2sc(N3CCCCC3)nc12,5.75
6,c1ccc(-n2nnc3ccccc32)nc1,11.2
7,OC(c1ccc(F)c(F)c1)c1nc(-c2ccc3ccccc3c2)cs1 (stereo not given),20.3
8,Cc1cc2ncn(C(=O)N3CCC(C)CC3)c2cc1C,7.84
9,CN(C)c1ccc(-c2ccc3oc(-c4ccsc4)cc(=O)c3c2)cn1,2.73
10,Cn1c(SCc2ccccc2)nnc1-c1c[nH]c2ccccc12,17.9
11,CO[C@H]1CN(C)C(=O)c2cc(NC(=O)Nc3ccc4c(c3)OCO4)ccc2OC[C@H](C)NC[C@H]1C,3.29
12,CNc1cnc(-c2ccc(F)c(F)c2F)cn1,1.54
13,CSc1nnc(NC(=O)c2cc3ccccc3oc2=O)s1,5.97
14,COc1ccc(-c2csc(Nc3cc(C)ccn3)n2)cc1C,1.91
15,Cc1ccn2cc(C(=O)Nc3nnc(C)s3)nc2c1,1.17
16,C=CCN(C(=O)CC(NC(C)=O)c1ccccc1)c1nc(-c2ccc(S(C)(=O)=O)cc2)cs1 (stereo not given),0.992
17,C/C(=C\C(=O)c1cccnc1)Nc1ccc(C)c(C)c1,3.36
18,COc1ccc(NC(=O)O/N=C/c2ccccc2)cc1,5.24
19,CCN(C(=O)CN1C(=O)S/C(=C\C=C\c2ccccc2)C1=O)C1CCS(=O)(=O)C1 (stereo not given),3.85
20,COc1ccc(C(=O)Nc2cc3c4c(c2)CC(=O)N4CCC3)c(OC)c1,5.13
21,c1ccc(Nc2ccc3ccccc3c2)cc1,3.83
22,Cn1c(/N=C(\N)c2ccccc2)nc2ccccc21,0.587
23,O=C(Nc1cccc2ccccc12)OCc1ccccc1,3.96
24,O=C(c1c(Cl)nc2sccn12)N(C(=O)c1c(Cl)nc2sccn12)c1ccc(Cl)cn1,0.693

row,SMILES,AC40 [µM]
1,COc1ccc(-n2nc(C(=O)NCC(=O)N3CCN(c4ccccc4F)CC3)c3ccccc3c2=O)cc1,1.22
2,CN(C)c1ccc(C(=O)c2ccccc2)cc1,2.69
3,CC(=O)c1ccc(NC(=O)c2cc(C)nc3ccccc23)cc1,3.55
4,N/C(=N\OC(=O)CC1CCCCC1)c1ccccn1,3.84
5,CCCC1c2ccc(C)n2CCN1C(=O)Nc1ccccc1Cl (stereo not given),6.07
6,Cn1c(-c2ncc(F)cc2F)cc2onc(-c3c(F)cccc3Cl)c2c1=O,0.47
7,CC(C)Nc1nc(Cl)nc(Nc2ccccc2)n1,5.89
8,CCCCSc1nnc(-c2ccc(OC)cc2)n1C,9.08
9,C(=NN=Cc1c[nH]c2ccccc12)c1c[nH]c2ccccc12,3.9
10,O=C(Nc1ccc(Oc2cccnc2)cc1)c1ccccc1F,12.7
11,O=C1Nc2ccccc2N=C(c2ccc3c(c2)OCO3)C1N(C(=O)c1ccc2ccccc2c1)C1CC1 (stereo not given),1.26
12,CC(C)c1ccc(CNNC(=O)c2ccccc2)cc1,2.18
13,C#CCN(CC=C)C(=O)CCc1nnc(COc2ccccc2)o1,22.4
14,Cc1csc(NC(=O)Nc2ccc(Cl)cc2)n1,2.68
15,COc1ccc(C2=NN(C(=O)c3ccccc3C(=O)O)C(c3ccccc3O)C2)cc1 (stereo not given),6.57
16,CCC(C)NC(=O)c1cc(-c2ccccc2O)on1 (stereo not given),11.1
17,Cc1ccsc1CN(C)C(=O)C1CCC(=O)N(CCc2cccc(F)c2)C1 (stereo not given),5.77
18,COc1cc(Cl)ccc1OCc1cc(C(=O)N2CCN(C)C(=O)[C@@H]2C)no1,1.64
19,COc1ccc2c(c1)nc(-c1cccc(Br)c1)c(=O)n2C(c1ccccn1)c1nc2ccccc2[nH]1 (stereo not given),2.94
20,Oc1cccc(Nc2nc(O)c(/C=C3\C=Nc4ccccc43)s2)c1,4.88
21,CC(C)NC(=O)CCc1nnc(Cc2cccc(C(F)(F)F)c2)o1,15.3
22,CN(C)c1ccc(CNc2nc3cc(-c4ccc(F)cc4)sc3c(=O)n2C)cc1,2.12
23,O=C1CCCc2cc3c(ccc4ccccc43)cc21,3.18
24,O=C(Cc1c(O)c2ccccc2oc1=O)c1ccc(F)cc1,2

# Source: PubChem BioAssay AID651717 (Broad Institute, 2012)
